# Values quoted from earlier work, collected in US6548087B1, “Nutritional supplement” (priority 1999, dated 2003).
# Tested on: libido and performance
# Conditions: daily use
compound,measurement,value
"C[C@]12CC[C@H](O)CC1=CC[C@@H]1[C@@H]2CC[C@]2(C)C(=O)CC[C@@H]12 [DHEA, dehydroepiandrosterone]",effect on libido and performance,increase libido and performance
